Some test systems named below: HOP-92 NSCLC; K-562 leukemia; LOX IMVI melanoma; OVCAR-4 ovarian; PC-3 prostate; RPMI-8226 leukemia; RXF 393 renal; SK-OV-3 ovarian; SR leukemia; UACC-62 melanoma.
Assay in all cases: growth of human tumour cells (NCI), 48 h

Values joined by “and” are separate entries in the source; they are usually repeats but may differ in a detail not shown here. Identical values can stand only once.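 Exposure lasted 48 hours, with cells grown in 96-well plates and compounds tested at five concentrations. GI50 marks 50% less growth. TGI is the concentration that stops growth completely.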 Where only a bound is given, the exact number is not on record here.

With `Cc1cc(N(CCCl)CCCl)ccc1C=Nc1ccc2ccccc2c1`, the GI50 was 11.8 µM in the assay on HOP-92 NSCLC; 32.4 µM in the assay on K-562 leukemia; 22.1 µM with LOX IMVI melanoma; 15.5 µM with OVCAR-4 ovarian; 17 µM in the assay with PC-3 prostate; 29.3 µM in the assay with RPMI-8226 leukemia. Also, the GI50 in the assay on RXF 393 renal is 13.4 µM; in the assay on SK-OV-3 ovarian it was 19.3 µM; in the assay with SR leukemia, 4.08 µM; in the assay on UACC-62 melanoma, 2.45 µM. The TGI in the assay with HOP-92 NSCLC is 61.1 µM; in the assay on K-562 leukemia, over 100 µM; with LOX IMVI melanoma it was over 100 µM; in the assay with OVCAR-4 ovarian it was over 100 µM; in the assay on PC-3 prostate, over 100 µM; in the assay with RPMI-8226 leukemia, over 100 µM. For the same compound, the TGI is over 96 µM in the assay on RXF 393 renal, over 100 µM in the assay with SK-OV-3 ovarian, over 100 µM with SR leukemia and 28.3 µM in the assay with UACC-62 melanoma.
As to `CCCCCCCCCCCCCCCCC(=O)O.CCCCCCCCCCCCCCCCCC(=O)O.CCCCCCCCCCCCCCCCCC(=O)O.CCCCCCCCCCCCCCCCCC(=O)O.CCCCCCCCCCCCCCCCCC(=O)O.CO[CH-]OC12COC1CC(O)C1(C)C(O)C(OC(C)O)C3=C(C)C(OC(=O)C(O)C([NH-])c4ccccc4)CC(O)(C(OC(=O)c4ccccc4)C21)C3(C)C.[Cu+].[Zn].[Zn].[Zn].[Zn].[Zn]` (configuration not stated), the GI50 in the assay with HOP-92 NSCLC is 0.858 µM; in the assay with K-562 leukemia, 0.005 µM; with LOX IMVI melanoma it was 0.00381 µM; in the assay with OVCAR-4 ovarian, 2.35 µM; in the assay on PC-3 prostate it was 0.00998 µM; in the assay with RPMI-8226 leukemia, 0.00776 µM. Besides, the GI50 was 0.0203 µM in the assay with SK-OV-3 ovarian, 0.00414 µM with SR leukemia and 0.0118 µM with UACC-62 melanoma. For the same compound, the TGI is 12.8 µM with HOP-92 NSCLC; over 25 µM in the assay on K-562 leukemia; 7.05 µM with LOX IMVI melanoma; 11.7 µM in the assay on OVCAR-4 ovarian; 5.63 µM with PC-3 prostate; over 25 µM in the assay on RPMI-8226 leukemia. For the same compound, the TGI with RXF 393 renal came to 0.21 µM; in the assay on SK-OV-3 ovarian, 5.3 µM; in the assay on SR leukemia, 11.5 µM; in the assay on UACC-62 melanoma it was 5.47 µM.
In the case of `O=c1ssc(Cl)c1Cl`, the TGI was over 10 µM with HOP-92 NSCLC; 9.04 µM with K-562 leukemia; over 10 µM in the assay with LOX IMVI melanoma; over 10 µM in the assay on OVCAR-4 ovarian; over 10 µM with PC-3 prostate; 9.11 µM with RPMI-8226 leukemia. Moreover, the TGI in the assay with RXF 393 renal, with SK-OV-3 ovarian, in the assay with SR leukemia and with UACC-62 melanoma was over 10 µM in each case.
`COc1ccc(/C=C/C(=O)c2ccc(OC)c(OC)c2)cc1O`: the GI50 in the assay with HOP-92 NSCLC is 2.02 µM; with K-562 leukemia it was 3.31 µM; in the assay with LOX IMVI melanoma, 5.69 µM; with OVCAR-4 ovarian it was 8.45 µM; in the assay on PC-3 prostate, 12.8 µM; in the assay with RPMI-8226 leukemia it was 3.19 µM. Further, the GI50 is 2.63 µM in the assay on RXF 393 renal, 6.51 µM in the assay on SK-OV-3 ovarian, 0.393 µM in the assay on SR leukemia and 11.2 µM in the assay on UACC-62 melanoma. For the same compound, the TGI was 13.6 µM with HOP-92 NSCLC; over 100 µM in the assay on K-562 leukemia; 18.6 µM with LOX IMVI melanoma; 20.8 µM in the assay on OVCAR-4 ovarian; 39.6 µM in the assay on PC-3 prostate; 15.1 µM in the assay on RPMI-8226 leukemia. In addition, the TGI in the assay on RXF 393 renal is 7.62 µM; in the assay with SK-OV-3 ovarian, 45 µM; in the assay on SR leukemia, over 100 µM; in the assay with UACC-62 melanoma, 24.3 µM.
Turning to `O=C1c2ccccc2-c2c1c1ccccc1c(=O)n2CCCNCCCCNCCCN1C(=O)c2ccccc2C2C(=O)c3ccccc3C21` (configuration not stated), the GI50 in the assay with HOP-92 NSCLC was 0.00829 µM; with K-562 leukemia, 0.182 µM; in the assay with LOX IMVI melanoma, 0.0278 µM; in the assay with OVCAR-4 ovarian it was 0.779 µM; with PC-3 prostate, 0.512 µM; with RPMI-8226 leukemia, 0.00858 µM. The GI50 in the assay with RXF 393 renal was 0.0305 µM; with SK-OV-3 ovarian it was 1.02 µM; in the assay with SR leukemia it was under 0.005 µM; in the assay on UACC-62 melanoma it was 0.666 µM. The TGI in the assay with HOP-92 NSCLC was 0.0428 µM; in the assay on K-562 leukemia, 0.727 µM; in the assay on LOX IMVI melanoma it was 0.253 µM; with OVCAR-4 ovarian it was 10.3 µM; in the assay with PC-3 prostate it was 1.24 µM; in the assay with RPMI-8226 leukemia it was 0.237 µM. Besides, the TGI with RXF 393 renal is 0.823 µM; in the assay on SK-OV-3 ovarian, 2.81 µM; with SR leukemia it was 0.00559 µM; in the assay on UACC-62 melanoma, 3.25 µM.
As to `Clc1ccc(OCc2nnc3n2N=C(c2ccc(Cl)cc2Cl)CS3)cc1`, the GI50 in the assay on HOP-92 NSCLC is 14.3 µM; with K-562 leukemia it was 32.5 µM; in the assay with LOX IMVI melanoma, 16.2 µM; with OVCAR-4 ovarian, 23.7 µM; in the assay on PC-3 prostate it was 27.6 µM; in the assay on RPMI-8226 leukemia, 21.1 µM. Besides, the GI50 with RXF 393 renal was 13.7 µM; with SK-OV-3 ovarian, 42.8 µM; in the assay on SR leukemia it was 19.4 µM; with UACC-62 melanoma, 14 µM. Besides, the TGI with HOP-92 NSCLC was 41.2 µM; in the assay on K-562 leukemia, over 100 µM; in the assay with LOX IMVI melanoma it was 30.9 µM; in the assay on OVCAR-4 ovarian, 79 µM; with PC-3 prostate, over 100 µM; in the assay on RPMI-8226 leukemia it was 68.5 µM. For the same compound, the TGI with RXF 393 renal was 31.8 µM; in the assay with SK-OV-3 ovarian, over 100 µM; with SR leukemia it was 52.9 µM; in the assay with UACC-62 melanoma, 31.4 µM.
Regarding `COc1ccc(C2C(C)C(=O)C(C)C(c3ccc(OC)cc3)N2N=O)cc1` (configuration not stated), the GI50 in the assay with HOP-92 NSCLC was over 47.9 µM; in the assay with K-562 leukemia it was over 750 µM; in the assay on LOX IMVI melanoma, over 750 µM; with OVCAR-4 ovarian, over 750 µM; in the assay with RPMI-8226 leukemia, over 750 µM; with RXF 393 renal, 20.7 µM and 67.6 µM. Also, the GI50 in the assay with SK-OV-3 ovarian was > 47.5 µM and 220 µM; in the assay with UACC-62 melanoma it was over 750 µM. The TGI was > 80.9 µM and 190 µM and 149 µM in the assay with HOP-92 NSCLC; over 1000 µM with K-562 leukemia; over 1000 µM in the assay with LOX IMVI melanoma; over 1000 µM in the assay on OVCAR-4 ovarian; over 1000 µM in the assay with PC-3 prostate; over 1000 µM in the assay with RPMI-8226 leukemia. For the same compound, the TGI is 64.8 µM and 216 µM and 122 µM in the assay on RXF 393 renal; > 82.5 µM and 626 µM and 980 µM in the assay on SK-OV-3 ovarian; over 1000 µM in the assay with SR leukemia; over 750 µM in the assay on UACC-62 melanoma.
With `COc1cc(C(=O)Nc2cc(OC)c3ccn(C)c3c2)cc2c1C[C@]1(C)CC[C@@H](O)C(C)(C)[C@H]1O2`, the GI50 was 0.593 µM in the assay on HOP-92 NSCLC; 0.597 µM with K-562 leukemia; 1.01 µM in the assay with LOX IMVI melanoma; 4.14 µM in the assay on OVCAR-4 ovarian; 0.195 µM in the assay on PC-3 prostate; 0.0392 µM in the assay with RPMI-8226 leukemia. For the same compound, the GI50 in the assay with RXF 393 renal was 0.0317 µM; in the assay on SK-OV-3 ovarian, 0.58 µM; with SR leukemia, 0.0837 µM; in the assay with UACC-62 melanoma it was 0.257 µM. The TGI was 6.03 µM in the assay on HOP-92 NSCLC; over 100 µM in the assay on K-562 leukemia; 10.1 µM in the assay with LOX IMVI melanoma; over 100 µM in the assay with OVCAR-4 ovarian; over 100 µM in the assay on PC-3 prostate; 1.16 µM in the assay on RPMI-8226 leukemia. Also, the TGI in the assay with RXF 393 renal was 0.485 µM; with SK-OV-3 ovarian, 5.11 µM; with SR leukemia it was over 100 µM; with UACC-62 melanoma it was 1.31 µM.

Source of the values: PubChem BioAssay (NCI).
